This is an account of results in US4365076A, “Process for the preparation of cycloalkylidenemethylphenylacetic acid derivatives” (Sankyo Company Limited, priority 1977, dated 1982).

SMILES strings stand for the structures.

One assay concerns inflammatory pain. The experiment in a line: Thermal Pain Test in Rats (analgesic activity on inflammatory pain). Type of assay: in vivo, rat (male Wistar). The conditions noted are these: for Inhibition %, Analgesic activity: Table I; for ED50: Rattus norvegicus, po, P.O., mean at 1 and 2 hours after drug, rats, Table II, read-out: Analgesic activity, Thermal Pain Test ID50. As to the method: II. ANALGESIC ACTIVITY ON INFLAMMATORY PAIN
Thermal Pain Test in Rats
The test was conducted according to the method reported by Y. Iizuka and K. Tanaka in Folia Pharmacol. Japan, 70, 697 (1974).
Under ether anesthesia, male Wistar rat of 5-7 weeks old received a standard heat injury at the hind paw by dipping it in hot water (57° C., 6 seconds). More than 1 hour later, the pain reaction could be evoked easily by another stimulatory heat (40° C., 5 seconds). Namely immediately after this treatment, the animal used to lift up the injured paw, presumably to avoid further pain which might be caused by touching it with the wire-netting of the cage.
Thus, the sum of duration time of the paw-lifting behavior was counted over a 30 seconds period and this was used as "pain reaction time." Drug was given orally 2 hours after the first application of heat and the mean value of "pain reaction time" at 1 and 2 hours after drug administration was used as the response.
(§1) In order to get the regression line of H (% inhibition of the response) on D (dose of test drug), H in each animal was calculated from the ratio of the response to the mean response in non-medicated group. Then, the regression line and ID50 were obtained by the method of least squares. The confidence limits of ID50 was calculated using Fieller's Equation.

Assay [1] deals with carrageenin-induced paw edema. Nature of the assay: Carrageenin Edema Test in Rats. The conditions noted are these: for Inhibition %, Anti-inflammatory activity: Table I; for ED50: Rattus norvegicus, po, P.O., 30 minutes before carrageenin, edema 3 hours after, rats, Table II, read-out: Anti-inflammatory activity, Carrageenin Edema Test ID50. The format is in vivo, rat (male Wistar). As to the method: (1) Carrageenin Edema Test in Rats
Inflammation was introduced by injection of 0.05 ml. of 1% carrageenin suspension into the plantar tissue of rat hind paw subcutaneously, by the method of Winter et al. in Proc. Soc. Exp. Biol. Med. 111, 544 (1962). Male Wistar rats weighing 120 to 150 g. which had fasted overnight received the test drug in aqueous tragacanth suspension orally 30 minutes before the carrageenin injection.
Paw edema was measured volumetrically, just before and 3 hours after the carrageenin injection, and R (response) was obtained by the following equation: R=(V-Vo)/Vo, where Vo and V represented the paw volumes 0 and 3 hours after carrageenin injection, respectively.
as §1
A general note: Carrageenan injected into the paw causes an acute inflammation.

For another assay, the system named is LPS-induced fever. Nature of the assay: LPS-induced Fever Test in Guinea Pigs (antipyretic activity). The format is in vivo, guinea pig (female Hartley). The settings on record: Cavia porcellus, po, P.O., 1.5 hours after LPS, mean at 1 and 2 hours after drug, Table II, read-out: Antipyretic activity, LPS-induced Fever Test ID50. As to the method: III. ANTIPYRETIC ACTIVITY
LPS-induced Fever Test in Guinea Pigs
Antipyretic activity was determined by a modified method of Kobayashi and Takagi in Jap. J. Pharmacol. 18, 80 (1968). Female Hartley guinea pigs weighing about 300 g. had fasted overnight and the fever was induced by injecting 1.0 μg/ml/kg LPS (product of Difco Laboratories, U.S.A., Lipo polysaccharide from Escherichia coli).
One hour after the injection, rectal temperature was measured and only the animals with fever between 0.8° C. and 1.2° C. were used for experiment.
Drugs were administered orally 1.5 hours after LPS injection, and the mean value of rectal temperature of each animal 1 and 2 hours after drug administration was used as the response.
as §1

Assay [2] has as its system adjuvant-induced arthritis. Nature of the assay: Adjuvant-induced Arthritis Test in Rats (Therapeutic Effect on Established Arthritis). Type of assay: in vivo, rat (female Lewis). The settings on record: Rattus norvegicus, po, 168 h, P.O., twice a day, 7 days (day 18 to 25), Table II, read-out: Anti-inflammatory activity, Adjuvant Arthritis Test ID50. As to the method: (2) Adjuvant-induced Arthritis Test in Rats
(Therapeutic Effect on Established Arthritis)
Female Lewis rats of 7-8 weeks old were injected intradermally in the hind paw with 0.05 mg. of heat-killed Mycobacterium butyricum in 0.05 ml. of liquid paraffin. Eighteen days after adjuvant injection, the well-established arthritic animals were selected and subjected to 7 days therapy with drug (twice a day orally). As the response, the volume of injected foot was measured by water displacement method at the beginning (day 18) and the end (day 25) of the therapy period.
as §1
In adjuvant arthritis, however, the ratio (RR) of responses after/before medication period was calculated first, where the response meant the swelled foot volume of the injected foot. Then, H in each animal was calculated from the ratio of RR to RRc, where RRc represented the mean RR is non-medicated group.

Consider `CCOC(=O)C(C)c1ccc(C=C2CCCCC2=O)cc1` (stereo not shown) [Ethyl 2-[4-(2-oxo-1-cyclohexylidenemethyl)phenyl]propionate], for which, in the assay with inflammatory pain (6.3 mg/kg (P.O.)), the “Inhibition %, Analgesic activity” value is on record as 59.2%. For the same compound, the “Inhibition %, Anti-inflammatory activity” value in assay [1] (6.3 mg/kg (P.O.)) came out at 72.7%.
On to `CC(C(=O)O)c1ccc(C=C2CCCC2=O)cc1` (stereo not shown) [2-[4-(2-Oxo-1-cyclopentylidenemethyl)phenyl]propionic acid], for which the ED50 in the assay with LPS-induced fever was determined as 0.83 mg/kg; in the assay on inflammatory pain, 1.3 mg/kg; in assay [1] it was 1.4 mg/kg; in assay [2] it was 1.2 mg/kg. For the same compound, the “Inhibition %, Analgesic activity” value in the assay on inflammatory pain (6.3 mg/kg (P.O.)) is given as 77.4%. The “Inhibition %, Anti-inflammatory activity” value in assay [1] (6.3 mg/kg (P.O.)) was 76.4%.
For `CC(C)Cc1ccc(C(C)C(=O)O)cc1` (stereo not shown) [Ibuprofen, reference compound], the ED50 is 1.26 mg/kg in the assay on LPS-induced fever, 17.8 mg/kg in the assay on inflammatory pain, 10.8 mg/kg in assay [1] and 104 mg/kg in assay [2].
With `CC(C(=O)O)c1ccc(C=C2CCCCC2=O)cc1` (stereo not shown) [2-[4-(2-Oxo-1-cyclohexylidenemethyl)phenyl]propionic acid], the ED50 turned out to be 1.46 mg/kg in the assay on LPS-induced fever, 1.8 mg/kg with inflammatory pain, 1.2 mg/kg in assay [1] and 0.2 mg/kg in assay [2]. Moreover, in the assay with inflammatory pain (6.3 mg/kg (P.O.)), the “Inhibition %, Analgesic activity” value was 86.8%. Further, the “Inhibition %, Anti-inflammatory activity” value in assay [1] (6.3 mg/kg (P.O.)) was found to be 75.0%.
Take `CCOC(=O)C(C)c1ccc(C=C2CCCC2=O)cc1` (stereo not shown) [Ethyl 2-[4-(2-oxo-1-cyclopentylidenemethyl)phenyl]propionate]: the “Inhibition %, Analgesic activity” value with inflammatory pain (6.3 mg/kg (P.O.)) was 50.5%. The “Inhibition %, Anti-inflammatory activity” value in assay [1] (6.3 mg/kg (P.O.)) is 85.0%.
For `CCCCC1C(=O)N(c2ccccc2)N(c2ccccc2)C1=O` [Phenylbutazone, reference compound], the “Inhibition %, Analgesic activity” value in the assay with inflammatory pain ((Control) 19 mg/kg (P.O.)) was 37%. Moreover, the “Inhibition %, Anti-inflammatory activity” value in assay [1] ((Control) 25 mg/kg (P.O.)) worked out at 30.6%.
